{"source": "patent EP4635500A1", "about": "“THERAPEUTIC AGENT FOR BACTERIAL INFECTION” (Sumitomo Pharma Co., Ltd., priority 2022, dated 2024)", "key": {"P. aeruginosa": {"tested_on": "P. aeruginosa", "assay": "MIC, broth microdilution, CDC/FDA Antibiotic Resistance Isolate Bank (Example 7, Tables 10, 15)", "type": "cell-based", "details": "Pseudomonas aeruginosa, read-out: MIC"}, "53 CRE and CPE strains": {"tested_on": "53 CRE and CPE strains", "assay": "MICrange, MIC50, MIC80, MIC90 for 53 bacterial isolates (Example 5, Table 5)", "type": "cell-based", "details": "53 bacterial isolates"}}, "note": "Where two headings read alike, the source gives them in different places.", "data": [{"smiles": "NCC[C@H](O)C(=O)N[C@@H]1C[C@H](N)[C@@H](O[C@H]2O[C@H](CN)[C@@H](O)[C@H](O)[C@H]2O)[C@H](O)[C@H]1O[C@H]1O[C@H](CO)[C@@H](O)[C@H](N)[C@H]1O", "note": "[Amikacin, amikacin]", "values": [{"measurement": "MIC", "setting": "P. aeruginosa; P. aeruginosa KUB No. 5697, AR Bank # 264", "result": 2, "unit": "µg/mL"}, {"measurement": "MIC", "setting": "P. aeruginosa; P. aeruginosa KUB No. 5698, AR Bank # 265", "result": 8, "unit": "µg/mL"}, {"measurement": "MIC", "setting": "P. aeruginosa; P. aeruginosa KUB No. 5699, AR Bank # 266", "result": 8, "unit": "µg/mL"}, {"measurement": "MIC", "setting": "P. aeruginosa; P. aeruginosa KUB No. 5700, AR Bank # 267", "result": 16, "unit": "µg/mL"}, {"measurement": "MIC", "setting": "P. aeruginosa; P. aeruginosa KUB No. 5701, AR Bank # 268", "result": 8, "unit": "µg/mL"}, {"measurement": "MIC", "setting": "P. aeruginosa; P. aeruginosa KUB No. 5702, AR Bank # 269", "result": 4, "unit": "µg/mL"}, {"measurement": "MIC", "setting": "P. aeruginosa; P. aeruginosa KUB No. 5703, AR Bank # 270", "result": 16, "unit": "µg/mL"}, {"measurement": "MIC", "setting": "P. aeruginosa; P. aeruginosa KUB No. 5704, AR Bank # 271", "result": 4, "unit": "µg/mL"}, {"measurement": "MIC", "setting": "P. aeruginosa; P. aeruginosa KUB No. 5705, AR Bank # 272", "result": 4, "unit": "µg/mL"}, {"measurement": "MIC", "setting": "P. aeruginosa; P. aeruginosa KUB No. 5747, AR Bank # 351", "result": 64, "unit": "µg/mL"}, {"measurement": "MIC", "setting": "P. aeruginosa; P. aeruginosa KUB No. 5748, AR Bank # 352", "result": 4, "unit": "µg/mL"}, {"measurement": "MIC", "setting": "P. aeruginosa; P. aeruginosa KUB No. 5749, AR Bank # 353", "result": 64, "unit": "µg/mL"}, {"measurement": "MIC", "setting": "P. aeruginosa; P. aeruginosa KUB No. 5750, AR Bank # 354", "result": 8, "unit": "µg/mL"}, {"measurement": "MIC", "setting": "P. aeruginosa; P. aeruginosa KUB No. 5751, AR Bank # 355", "result": 8, "unit": "µg/mL"}, {"measurement": "MIC", "setting": "P. aeruginosa; P. aeruginosa KUB No. 5752, AR Bank # 356", "result": 2, "unit": "µg/mL"}, {"measurement": "MIC", "setting": "P. aeruginosa; P. aeruginosa KUB No. 5753, AR Bank # 357", "result": "> 64", "unit": "µg/mL"}, {"measurement": "MIC", "setting": "P. aeruginosa; P. aeruginosa KUB No. 5754, AR Bank # 358", "result": 4, "unit": "µg/mL"}, {"measurement": "MIC", "setting": "P. aeruginosa; P. aeruginosa KUB No. 5755, AR Bank # 359", "result": 4, "unit": "µg/mL"}, {"measurement": "MIC", "setting": "P. aeruginosa; P. aeruginosa KUB No. 5756, AR Bank # 360", "result": 4, "unit": "µg/mL"}, {"measurement": "MIC", "setting": "P. aeruginosa; P. aeruginosa KUB No. 5785, AR Bank # 439", "result": "> 64", "unit": "µg/mL"}, {"measurement": "MIC", "setting": "P. aeruginosa; P. aeruginosa KUB No. 5786, AR Bank # 440", "result": 8, "unit": "µg/mL"}, {"measurement": "MIC", "setting": "P. aeruginosa; P. aeruginosa KUB No. 5787, AR Bank # 441", "result": 2, "unit": "µg/mL"}, {"measurement": "MIC", "setting": "P. aeruginosa; P. aeruginosa KUB No. 5788, AR Bank # 443", "result": 64, "unit": "µg/mL"}, {"measurement": "MIC", "setting": "P. aeruginosa; P. aeruginosa KUB No. 5789, AR Bank # 444", "result": "> 64", "unit": "µg/mL"}, {"measurement": "MIC", "setting": "P. aeruginosa; P. aeruginosa KUB No. 5790, AR Bank # 445", "result": 64, "unit": "µg/mL"}, {"measurement": "MIC", "setting": "P. aeruginosa; P. aeruginosa KUB No. 5793, AR Bank # 449", "result": 8, "unit": "µg/mL"}, {"measurement": "MIC", "setting": "P. aeruginosa; P. aeruginosa KUB No. 5798, AR Bank # 455", "result": 0.25, "unit": "µg/mL"}, {"measurement": "MIC", "setting": "P. aeruginosa; P. aeruginosa KUB No. 5799, AR Bank # 456", "result": 8, "unit": "µg/mL"}, {"measurement": "MIC", "setting": "P. aeruginosa; P. aeruginosa KUB No. 5800, AR Bank # 457", "result": 2, "unit": "µg/mL"}, {"measurement": "MIC", "setting": "P. aeruginosa; P. aeruginosa KUB No. 5801, AR Bank # 458", "result": 16, "unit": "µg/mL"}, {"measurement": "MIC", "setting": "P. aeruginosa; P. aeruginosa KUB No. 5802, AR Bank # 459", "result": 8, "unit": "µg/mL"}, {"measurement": "MIC", "setting": "P. aeruginosa; P. aeruginosa KUB No. 5804, AR Bank # 862", "result": 4, "unit": "µg/mL"}, {"measurement": "MIC", "setting": "P. aeruginosa; P. aeruginosa KUB No. 5805, AR Bank # 863", "result": "> 64", "unit": "µg/mL"}, {"measurement": "MIC", "setting": "P. aeruginosa; P. aeruginosa KUB No. 5806, AR Bank # 864", "result": 0.5, "unit": "µg/mL"}, {"measurement": "MIC", "setting": "P. aeruginosa; P. aeruginosa KUB No. 5813, AR Bank # 508", "result": 0.064, "unit": "µg/mL"}, {"measurement": "MIC", "setting": "P. aeruginosa; P. aeruginosa KUB No. 5814, AR Bank # 509", "result": "> 0.064", "unit": "µg/mL"}, {"measurement": "MIC", "setting": "P. aeruginosa; P. aeruginosa KUB No. 5815, AR Bank # 510", "result": 0.008, "unit": "µg/mL"}, {"measurement": "MIC", "setting": "P. aeruginosa; P. aeruginosa KUB No. 5816, AR Bank # 511", "result": 0.004, "unit": "µg/mL"}, {"measurement": "MIC", "setting": "P. aeruginosa; P. aeruginosa KUB No. 5817, AR Bank # 512", "result": 0.004, "unit": "µg/mL"}, {"measurement": "MIC", "setting": "P. aeruginosa; P. aeruginosa KUB No. 5818, AR Bank # 513", "result": 0.032, "unit": "µg/mL"}, {"measurement": "MIC", "setting": "P. aeruginosa; P. aeruginosa KUB No. 5819, AR Bank # 514", "result": 0.004, "unit": "µg/mL"}, {"measurement": "MIC", "setting": "P. aeruginosa; P. aeruginosa KUB No. 5820, AR Bank # 515", "result": 0.008, "unit": "µg/mL"}, {"measurement": "MIC", "setting": "P. aeruginosa; P. aeruginosa KUB No. 5821, AR Bank # 516", "result": 0.002, "unit": "µg/mL"}, {"measurement": "MIC", "setting": "P. aeruginosa; P. aeruginosa KUB No. 5823, AR Bank # 518", "result": 0.016, "unit": "µg/mL"}, {"measurement": "MIC", "setting": "P. aeruginosa; P. aeruginosa KUB No. 5831, AR Bank # 526", "result": 0.004, "unit": "µg/mL"}, {"measurement": "MIC", "setting": "P. aeruginosa; P. aeruginosa KUB No. 5832, AR Bank # 527", "result": 0.0005, "unit": "µg/mL"}, {"measurement": "MIC", "setting": "P. aeruginosa; P. aeruginosa KUB No. 5833, AR Bank # 528", "result": 0.008, "unit": "µg/mL"}, {"measurement": "MIC", "setting": "P. aeruginosa; P. aeruginosa KUB No. 5834, AR Bank # 529", "result": 0.004, "unit": "µg/mL"}, {"measurement": "MIC50", "setting": "53 CRE and CPE strains; read-out: MIC50", "result": 2, "unit": "µg/mL"}, {"measurement": "MIC80", "setting": "53 CRE and CPE strains; read-out: MIC80", "result": 32, "unit": "µg/mL"}, {"measurement": "MIC90", "setting": "53 CRE and CPE strains; read-out: MIC90", "result": "> 64", "unit": "µg/mL"}]}]}
